Series [1] deals with fibroblast cells. The series is described as follows: Cytotoxicity, MTT assay. In kind it is cell-based. The conditions noted are these: 50 μM for 3 days, FIG. 7. As for the experimental part:
(§1) Prostate cancer cells DU145 (carcinoma) and fibroblast cells were cultured in […] (RPMI 1640 medium) supplemented with 10% fetal bovine serum (FBS) and 1% penicillin/streptomycin, and were grown at 37° C. with 5% CO2.
(§2) Tested molecules were dissolved and stored in DMSO at 20 mM concentration.
(§3) DU145 and fibroblast cells were seeded at 5×10^3 cells/well in 100 μl of medium in standard 96-well plates. The plates were incubated 24 h at 37° C. at an atmosphere of 5% CO2. Molecule solutions diluted in DMSO were serially diluted by RPMI 1640 medium from 60 μM to 0.02 μM and were added in 100 μl RPMI in quadruplicate.
(§4) After 72 h of incubation, 20 μL of 5 mg mL-1 MTT was added to each well according to the manufacturer's instructions. After 2 h of incubation at 37° C., the medium was removed, and 200 μl DMSO was added to each well to dissolve formazan crystals. The absorbance at 540 nm of each well was then monitored using an EnSpire multimode plate reader. Absorbance of each well was expressed as percentage of the control (wells with untreated cells), and the 50% inhibitory concentration (IC50) was determined. […] All data were expressed as the mean values±standard deviation. The IC50 values were calculated by linear regression analysis of the concentration-log response curves using the software GraphPad InStat 3.0.
A general note: Formazan colour is commonly taken as a measure of viable cells.

For series [2], the target named is T1, HsRad51 (Homo sapiens, UniProt Q06609).
T1 sequence (Q06609 1-339): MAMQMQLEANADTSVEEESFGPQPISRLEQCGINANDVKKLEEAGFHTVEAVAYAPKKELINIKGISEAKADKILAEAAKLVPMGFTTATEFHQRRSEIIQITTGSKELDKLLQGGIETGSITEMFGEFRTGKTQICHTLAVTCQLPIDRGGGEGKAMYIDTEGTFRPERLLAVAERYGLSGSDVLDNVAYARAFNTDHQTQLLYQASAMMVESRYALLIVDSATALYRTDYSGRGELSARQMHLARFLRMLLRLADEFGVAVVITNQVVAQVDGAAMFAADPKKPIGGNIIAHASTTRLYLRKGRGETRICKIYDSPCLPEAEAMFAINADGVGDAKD
The series is described as follows: RAD51 oligomerization by SDS-PAGE gel after crosslink. Format: biochemical. The conditions noted are these: 2.5 μM HsRad51, disuccinimidyl suberate crosslink, SDS-PAGE/Western blot; FIG. 1. As to the method:
The reaction was performed at room temperature. 2.5 μm HsRad51 was incubated with the indicated concentrations of tested compounds for 10 min in a buffer containing 20 mm sodium phosphate, 50 mm NaCl, 1 mm MgCl 2, and 1 mm ATP. The cross-linking reactions were initiated by the addition of disuccinimidyl suberate (50 μm) and allowed to proceed for 30 min. Reactions were quenched by the addition of Tris-HCl (pH 7.5, final concentration: 50 mm) followed by subsequent incubations for 15 min. The products were then separated by 12% SDS polyacrylamide gel electrophoresis and detected by Western blot with mouse monoclonal anti-Rad51 antibody (NeoMarkers) and anti-mouse Alexa-Fluor 700-conjugated secondary antibody (Molecular Probes, Eugene, OR). The cross-linked dimer was quantified by an Odyssey Infrared Imaging System scanner (Li-Cor Biosciences) (Martinez, S. F. et al., “Targeting human Rad51 by specific DNA aptamers induces inhibition of homologous recombination”, Biochimie, December 2010, Vol. 92, No. 12, pp. 1832-1838).
The SDS-PAGE electrophoresis after crosslink maintains and immobilizes the RAD51 protein complexes and thus allows visualization of the degree of oligomerization (polymer formation) of the RAD51 protein. The effect of RAD51 protein inhibitors B-1, B-2, B-3, DIDS and X-4 on this key step of RAD51 protein recombinase activity has thus been evaluated. The results are presented on FIG. 1.

Series [3] has as its target T2, Rad51 (Homo sapiens, UniProt Q06609).
T2 sequence (Q06609 1-339): T1 sequence (Q06609 1-339)
The experiment in a line: DNA invasion by D-loop assay (strand exchange). Format: biochemical. To be noted: 0.5 μM Rad51, 1 μM 100-ssDNA, 37° C.; read-out: IC50 (RAD51 protein inhibition, D-loop formation). As to the method: Labeled 100-ssDNA** (1 μM) was incubated with 0.5 μM Rad51 in presence or absence of the indicated amounts of the corresponding molecule in 10 μL of standard reaction buffer containing 20 mM Tris-HCl (pH 8), 1 mM ATP, 1 mM DTT, 1 mM CaCl2) at 37° C. for 20 min. The reaction was initiated by adding supercoiled pPB4.3 DNA (200 μM in bp). After incubation of 30 min at 37° C., the reactions were stopped and deproteinized by a stop solution (10 mM Tris-HCl pH 8, 10 mM MgCl2, 1% SDS, and 1 mg/mL proteinase K. The reaction mixtures were further incubated for 15 min at 37° C. After adding 5-fold loading dye (0.05% bromophenol blue, 8% glycerol, 1 mM EDTA), the reaction products were separated by electrophoresis on 1% agarose gel. The electrophoresis was carried out in 0.5×TAE buffer (20 mM Tris, 10 mM acetic acid and 1 mM EDTA) at 100 V for 2 h. The labeled products (100-ssDNA** and D-loop) were visualized and quantified by the detection of the IRD-700 dye with the 700 nm infrared fluorescent detection channel of an Odyssey Infrared Imager (LI-COR) (Normand, A. et al., Biochemical Pharmacology, October 2014, Vol. 91, No. 3, pp. 293-300).
The “D-loop” in vitro test allows the quantification of the formation of the strand exchange structure (D-loop) and thus the determination of the inhibitory power of a molecule during the strand exchange step of the recombinase mechanism. IC50 measuring the RAD51 protein inhibition in presence of compounds A-1 to A-5, […] and DIDS are then calculated.

The test system of series [4] is RAD51 foci in DU-145 cells. The series is described as follows: Rad51 foci quantification by immunofluorescence. Format: cell-based. The conditions noted are these: DU-145, cisplatin 30 μM for 1 hour, fixed after 18 h. As for the experimental part: DU-145 cells were grown on coverslips (Life Technologies) at a density of 5×10^3 cells per well in medium (RPMI) supplemented with 10% fetal bovine serum (Gibco-Invitrogen). Cells were treated with Cisplatin at 30 μM for 1 hour in presence or in absence of RAD51 inhibitor B-2 at 20 μM, and then the medium was replaced with molecule-free medium. After 18 h, cells were washed once in PBS for 5 min and fixed with ethanol absolute for 25 min.
The fixed cells were incubated for 1 h in the PBS buffer containing 1:1000 diluted anti-RAD51 antibody at room temperature. After three 5-min washes in PBS, slides were incubated with PBS solution containing the secondary antibody conjugated with AlexaFluor 555 ([…]) for 45 min in dark room. […] The images were recorded with NIS Element software (Version 3.6, Nikon, Tokyo, Japan). The quantification of RAD51 foci was processed with a program derived from Fiji-ImageJ software (NIH, Bethesda, Maryland, USA). […]
The treatment with Cisplatin alone induces a high level of RAD51 foci, whereas this level is decreased when the treatment is associated with B-2 20 μM. After the quantification of the number of RAD51 foci per cell, the number of cells containing more than 20 RAD51 foci was determined.

The test system of series [5] is DU-145 cell line. The series is described as follows: Clonogenicity test, sensitizing effect with an antineoplastic drug. In kind it is cell-based. The conditions noted are these: DU-145, cisplatin alone; read-out: IC50 (clonogenic survival, cisplatin). As for the experimental part:
Clonogenicity tests are carried out against several model cell lines derived from cancer including prostate cancer (DU-145). Cells are exposed to an anti-cancer agent targeting DNA (cisplatin or camptothecin). Damaged cells are counted and seeded in the presence or in the absence of B-2 in triplicate culture plates. After about two weeks of incubation at 37° C. the number of clones formed is counted. Each cell capable of repairing its lesions will then form a clone. After counting, the percentage of survival will be calculated relative to the control condition for which it is considered that there is 100% survival.
The main interest of RAD51 protein inhibitors is the sensitization of chemo-resistant or radio-resistant cancerous cell lines. Clonogenicity evaluation was carried out on the DU-145 cell line treated with cisplatin treatment in the presence or in the absence of disulfonate stilbene B-2 (RAD51 protein inhibitor).
DU-145 cell line was treated with camptothecin in the presence or in the absence of disulfonate stilbene B-2 (RAD51 protein inhibitor) and the clonogenic cell survival was determined.

Series [6] deals with DU145 prostate cancer cell line. The series is described as follows: Cytotoxicity, MTT assay. In kind it is cell-based. The conditions noted are these: DU-145 cells, 50 μM for 3 days. As to the method:
as §1, §2, §3
as §4, with “3.0. […]” for “3.0.”

The structures appear in SMILES notation.

As to `O=S(=O)(O)c1cc(N=C=S)ccc1C=Cc1ccc(N=C=S)cc1S(=O)(=O)O` [DIDS, 4,4′-Diisothiocyano-2,2′-stilbene disulfonic acid, reference compound], the cytotoxic effect entry in series [1] is “has a cytotoxic effect”. The “oligomerization state of RAD51 protein” value in series [2] was “reduction”. Also, the IC50 (in general, the concentration that inhibits the measured activity by half) in series [3] came to 1 µM.
Regarding `N.N.[Cl][Pt][Cl]` [Cisplatin, reference compound], the “level of RAD51 foci” value in series [4] was “high level”. For the same compound, the IC50 in series [5] was determined as 33 µM.
With `O=c1c2ccccc2nc(/C=C/c2cccnc2)n1Cc1ccccc1` [BPQ, (E)-3-benzyl-2-(2-(pyridin-3-yl)vinyl)quinazolin-4(3H)-one], the mortality of cells in series [6] is recorded as 90%. In addition, the cytotoxic effect entry in series [6] (FIG. 6) is given as “high cytotoxicity”.
